Consider 87 molecules from a melting point compilation (Tetko et al.; mined from patent text by program, amines drawn as free bases though some values may be those of a salt).

Broadly, the melting point is the temperature of the solid-liquid transition.

Regarding `Cc1cc(C(F)(F)F)nc(OCC2CO2)c1C(=O)C1=C(O)C2CCC(C2)C1=O` (configuration not stated), the melting point lay within 54 to 56 °C. In the case of `C=C(C(=O)O)c1ccc(Cl)cc1` it was 110 °C; in that of `CC1(C)C(=O)C(C(=O)c2ccc(Cl)cc2[N+](=O)[O-])C(=O)C(C)(C)C1=O`, 76 to 82 °C; in that of `Nc1cc(C(=O)c2cccc(C(=O)c3ccc(Cl)c(N)c3)c2)ccc1Cl`, 209 °C. In the case of `CS(=O)c1cc(O)ccc1-c1nc2cnccc2[nH]1` (configuration not stated) it was 215 °C; in that of `O=C(C=C(c1ccccc1)c1ccccc1)NCCCCc1cccnc1`, 78 to 80 °C. Consider `O=C1Nc2ccccc2CN1C1CCN(Cc2ccccc2)CC1`, for which the melting point lay within 204 to 206 °C. In the case of `CCN(CC)CCOc1cccc2c1c1cccc(Cl)c1n2Cc1ccc(F)cc1`, the melting point was 104 to 106 °C. The molecule `CCCc1nc2c(N)nc3ccccc3c2n1CCOCCCS(C)(=O)=O` showed a melting point of 149 to 151 °C.

As to `c1cncc(-c2noc(-c3ccco3)n2)c1`, the melting point lay in the range of 110 to 114 °C.

Consider `O=C(O)Cn1c(-c2cc(Br)co2)nc2cccnc21`, for which the melting point is 229 to 231 °C. As for `CC(C)(C)OC(=O)C1CCCC(c2ccccc2)N1` (configuration not stated), the melting point stood at 68 °C. Turning to `O=C(c1ccccc1)c1[nH]c2cc(Cl)ccc2c1CC(=O)N1CCOCC1`, the melting point lay in the range of 188 to 190 °C. `CC(=O)NCC(=O)NCC(=O)N1CC1C#N` (configuration not stated): the melting point was in the range of 70 to 76 °C. To `CC(Cl)(Cl)C(NC(=O)c1ccc(Cl)cc1)Nc1c(Nc2cccnc2)c(=O)c1=O` (configuration not stated) belongs 201 to 202 °C; to `CCCCC(CC)Cn1c(C)cc(C)c(C#N)c1=O` (configuration not stated), 84 to 89 °C. For the molecule `Cn1c(-c2ccccc2)c2ccsc2nc1=O`, the melting point lay within 175 to 181 °C.

For `Cc1ccc(C(=O)Oc2cc(O)ccn2)cc1`, the melting point lay in the range of 120 to 127 °C. `N#Cc1cccc(-n2ccc3ccccc32)c1` gave a melting point of 33 to 36 °C. Turning to `Cn1nc(C(C)(C)c2ccc(Cl)cc2)nc1-c1c(F)cccc1Cl`, the melting point fell in the range of 97 to 100 °C. For `CCCc1nn(-c2ccc(C(F)(F)F)cn2)cc1CCCOc1cc(CCC(=O)O)n(C2CCCCC2)n1`, the melting point lay within 164 to 165 °C. To `O=C1Cc2c([nH]c3ccc([N+](=O)[O-])cc23)-c2cc(Br)ccc2N1` belongs greater than 330 °C. With `COC(=O)c1cc(C(=O)O)cc(-c2cc(Cl)ccc2Cl)c1`, the melting point lay within 222 to 224 °C. Molecule `CN(C)c1nc(N)c(-c2nc(N)no2)nc1Cl` came in with a melting point of 210 to 211 °C. Molecule `CCc1cnc(N2CCN(C(=O)c3ccccc3NC3=c4ccccc4=NCN3c3ccccc3)CC2)nc1` had a melting point of 204 to 205 °C. Turning to `CC(=O)Oc1cc(OCCF)ccc1C(=O)O`, the melting point was 126 to 127 °C. Molecule `COC(=O)c1ccc(-c2cc(-c3ccccc3)no2)cc1` yielded a melting point of 205 to 206 °C. Turning to `Nc1sc2c(c1C(=O)c1ccco1)CCN(Cc1ccccc1)C2`, the melting point is 112 to 117 °C. `CCS(=O)(=O)c1ccc(C(=O)NCc2ccc3c(c2)C(=O)N(C2(C)CCC(=O)NC2=O)C3=O)nc1` (configuration not stated) registered a melting point of 145 to 147 °C. Take `OCc1cc2ccc3c4ccccc4ccc3c2o1`: the melting point fell in the range of 125 to 126 °C. On to `Cc1ccccc1C1CC(=O)c2c(C)ccnc2C1` (configuration not stated), for which the melting point lay within 104 to 106 °C. In the case of `Cc1ccc(-c2c(C(N)=O)n(C)c(=O)c3ncccc23)cc1` it was greater than 310 °C.

For `NC[C@@H]1CC[C@H](C(=O)O)C1` (relative stereo), the melting point was 186 to 188 °C. To `CCOC(=O)c1nccc(N)n1` belongs 101 to 104 °C. As for `Nc1nc(-c2ccc(CCCCN3CCN(c4nsc5ccccc45)CC3)cc2)cs1`, the melting point lay in the range of 258 to 261 °C. In the case of `COc1cc(OC2CCN(Cc3cccnc3)CC2)ccc1CC(=O)N1CCN(c2ccccc2C)CC1C(N)=O` (configuration not stated), the melting point was 78 to 81 °C. Consider `CCOC(=O)C1=C(C)NC(C)=C(C(=O)OCC)C1c1ccccc1/C=C/c1ccccc1`, for which the melting point lay within 187 to 188 °C. The molecule `COc1cc(Nc2nccc(-c3cccc(Br)c3)n2)cc(OC)c1OC` registered a melting point of 145 °C. In the case of `O=C(N[C@@H](Cc1c[nH]c2ccccc12)C(=O)O)c1ccc([N+](=O)[O-])cc1` it was 115 to 117 °C.

`CCOCC(=Nc1ccc(Cl)cc1C(F)(F)F)n1ccnc1` gave a melting point of 49 to 52 °C. To `CC1=C(C(=O)OC2CCCC2)C(c2cccc([N+](=O)[O-])c2)C([N+](=O)[O-])=C(C)N1` (configuration not stated) belongs 174 °C. As for `COC1=NS(=O)(=O)N(C)C(OCCCCc2ccccc2)=N1`, the melting point lay in the range of 74 to 78 °C.

The molecule `CC(C)(C)c1ccc(C(=O)CCCCCc2ccccc2)cc1NC(=O)CC1c2ccccc2Oc2ccccc21` returned a melting point of 119 to 120 °C. The molecule `CCCCC[C@@H](CNC(=O)Nc1c(OCC)ccc2c1CCCC2)c1cccc2c1OCO2` showed a melting point of 81.5 to 82.5 °C. As for `COC(=O)Cc1cc2c(s1)NC(=O)C(C)N=C2c1ccccc1Cl` (configuration not stated), the melting point fell in the range of 185 to 190 °C. Consider `Nc1ccc(NCC(F)(F)F)c([N+](=O)[O-])c1`, for which the melting point fell in the range of 104 to 106 °C. In the case of `CCOCc1nc2c(N)nc3cc(-c4cccc(CO)c4)cnc3c2n1CC(C)(C)O` it was 186 to 187 °C; in that of `O=C(CCl)Nc1ccc(C(O)(C(F)(F)F)C(F)(F)F)cc1O`, 218 to 219 °C. For `C#CCc1c(O)nc(C)nc1O`, the melting point was greater than 300 °C. In the case of `CC(C)(C)[Si](C)(C)N1C(=O)CC1CC(=O)CC(=O)OCc1ccc([N+](=O)[O-])cc1` (configuration not stated) it was 65 to 66.5 °C. With `C=CCN1Cc2nc3c(cnn3CCCl)c(N)c2C1=O`, the melting point was 198 to 199 °C. For the molecule `Cn1c(COc2ccc(CC3SC(=O)N(C(c4ccccc4)(c4ccccc4)c4ccccc4)C3=O)cc2)nc2ccc(OCc3ccccc3)nc21` (configuration not stated), the melting point lay within 88 to 92 °C. Molecule `O=NCNC1=Nc2ccc([N+](=O)[O-])cc2C(c2ccccc2Cl)=NC1` came in with a melting point of 164 to 166 °C. The molecule `CCc1nc2cc(C(F)(F)F)c(Cl)cc2n1-c1ccc(CCOC(=O)NS(=O)(=O)c2cccc3c(N(C)C)cccc23)cc1` had a melting point of 203 °C. In the case of `COC(=O)CC[C@H](NC(=O)c1ccc(CCC2CNc3nc(NC(=O)C(C)(C)C)nc(O)c3C2)s1)C(=O)OC` (some centres not stated), the melting point lay in the range of 152 to 160 °C.

`Clc1cccc(-n2c(/C=C/c3ccccc3)nc3ccccc32)n1` yielded a melting point of 122 to 123 °C. In the case of `CC1=C(C(=O)c2ccc3c(c2)CCN(C(N)=O)C3)C(C)(C)CC1` it was 40.1 to 41.4 °C; in that of `CCS(=O)(=O)c1c(CS(=O)(=O)C2=NOC(C)(C)C2)c(C(F)(F)F)nn1-c1ccccc1`, 158 to 160 °C; in that of `CC(C)(C=O)N1C(=O)c2ccccc2C1=O`, 80 to 82 °C.

Consider `CC(O)COc1ccc(Oc2cccc(F)c2)cc1` (configuration not stated), for which the melting point fell in the range of 37 to 39 °C. To `CCCCc1c(CO)nc2ccccc2c1OCc1ccc(-c2ccccc2C(=O)O)cc1` belongs 174 °C; to `CCCc1nn(-c2ccc(C(F)(F)F)cn2)cc1CCCOc1ccc(CCC(=O)O)c(OC)c1`, 114 to 115 °C. Molecule `CC1(C)CC(=O)C2C3CCCCC3C2(C)C1` (configuration not stated) came in with a melting point of 76.6 to 77.4 °C. `COC(=O)Cn1c(=O)c(=O)[nH]c2ccccc21` came in with a melting point of 269 °C. `CCN1C(=O)C(C)(C)C(=O)N(C)c2cc(CN(CCn3cc(C)c4occc4c3=O)Cc3cccnc3COC)ccc21` showed a melting point of 104 to 111 °C. On to `CNC(=S)NCc1nc(C(C)C)c(Sc2cc(Cl)cc(Cl)c2)n1C`, for which the melting point lay in the range of 188 to 190 °C. `O=C1C(=O)N(CCCCN2CCN(C(c3ccccc3)c3ccccc3)CC2)c2ccc(F)cc21` came in with a melting point of 144 °C. For `COc1ccccc1N1CCN(CCCO)CC1`, the melting point lay in the range of 88 to 89 °C. With `O=C(N[C@H](Cc1cccc(OCC(F)(F)C(F)F)c1)[C@@H](O)c1ccc(F)cc1)c1ccc(F)c2ccccc12` (racemic), the melting point was in the range of 160 to 161 °C. The molecule `COc1ccc(C(C)(C#N)CNC(=O)C(N)=O)cc1OC1CCCC1` (configuration not stated) yielded a melting point of 171 to 172 °C. Regarding `Cc1nc(N2CCc3ccccc3CC2)c(C#N)c(=O)n1CCO`, the melting point lay in the range of 164 to 168 °C. Take `CCOC(=O)C1=C(C)Nc2nc(N3CCOCC3)nc(N3CCOCC3)c2C1c1cccc2ccccc12` (configuration not stated): the melting point was found to be 198 °C. On to `CC(=O)NNCC1CC2c3cccc4[nH]cc(c34)CC2N(C)C1` (configuration not stated), for which the melting point lay in the range of 213 to 215 °C. `CNC(=NC#N)NCCCn1cc(C2=C(c3cn(C)c4ccccc34)C(=O)NC2=O)c2ccccc21` registered a melting point of 190 to 193 °C. In turn, `Cc1cc(C)c(-c2cn(C)c3nc(N)[nH]c(=O)c23)c(C)c1` had a melting point of 184 to 186 °C. As to `N#Cc1ccc(C(F)(F)C23CCCN2C(=O)N(c2cc(Cl)cc(Cl)c2)C3=O)cc1` (configuration not stated), the melting point was 66 °C. To `CCS(=O)(=O)c1cc(C(=O)NCC2CCCN2CC2=CCCCC2)c(OC)cc1N` (configuration not stated) belongs 192 °C; to `c1ccc(-c2ccn3nccc3n2)cc1`, 122 to 124 °C.

The molecule `CCCOc1ccccc1-c1nc2nc(NCCO)ncc2c(=O)[nH]1` gave a melting point of 204 to 206 °C. Molecule `O=c1c2ccc(Cl)cc2[nH]c2c(O)nn(-c3ccc(O)cc3)c(=O)c12` had a melting point of 316 to 318 °C. As to `CCc1nc(N)nc(O)c1I`, the melting point was in the range of 199 to 200 °C. Take `CNC=Nc1ccc(-c2c[nH]cn2)cc1`: the melting point fell in the range of 189 to 190 °C. Regarding `O=C(O)C1CCCc2sc(=O)[nH]c21` (configuration not stated), the melting point is 192 °C. To `CSC1C(=O)Nc2c(C(=O)c3ccc(F)cc3)cccc21` (configuration not stated) belongs 165 to 168 °C. Turning to `COCCc1nc(-c2ccc(C(F)(F)F)cc2)ncc1COc1ccc(OC(C)(C)C(=O)O)c(C)c1`, the melting point was 120 °C. Molecule `CCCCCCCCCCCCCCCCCCOc1cn(-c2ccc(OCc3ccccc3)cc2)c(CNCCCN(C)C)cc1=O` displayed a melting point of 103 to 109 °C.

As for `CCOC(=O)c1cn(C2CC2)c2c(F)c(F)c(Cl)cc2c1=O`, the melting point was in the range of 169 to 172 °C.
